Legend:
Set-up in all cases: scale not given: the % may be the effect or the level left
[1] = molecular target: T1, Dual serine/threonine and tyrosine protein kinase (Homo sapiens) (UniProt Q6XUX3); assay: Inhibition of human RIPK5 assessed as enzyme activity at 1 uM using myelin basic protein as substrate preincubated for 20 mins followed by [gamma-33P]-ATP addition and measured after 120 mins by radiometric Hot-SpotSM Kinase assay relative to control
T1 sequence (whole entry): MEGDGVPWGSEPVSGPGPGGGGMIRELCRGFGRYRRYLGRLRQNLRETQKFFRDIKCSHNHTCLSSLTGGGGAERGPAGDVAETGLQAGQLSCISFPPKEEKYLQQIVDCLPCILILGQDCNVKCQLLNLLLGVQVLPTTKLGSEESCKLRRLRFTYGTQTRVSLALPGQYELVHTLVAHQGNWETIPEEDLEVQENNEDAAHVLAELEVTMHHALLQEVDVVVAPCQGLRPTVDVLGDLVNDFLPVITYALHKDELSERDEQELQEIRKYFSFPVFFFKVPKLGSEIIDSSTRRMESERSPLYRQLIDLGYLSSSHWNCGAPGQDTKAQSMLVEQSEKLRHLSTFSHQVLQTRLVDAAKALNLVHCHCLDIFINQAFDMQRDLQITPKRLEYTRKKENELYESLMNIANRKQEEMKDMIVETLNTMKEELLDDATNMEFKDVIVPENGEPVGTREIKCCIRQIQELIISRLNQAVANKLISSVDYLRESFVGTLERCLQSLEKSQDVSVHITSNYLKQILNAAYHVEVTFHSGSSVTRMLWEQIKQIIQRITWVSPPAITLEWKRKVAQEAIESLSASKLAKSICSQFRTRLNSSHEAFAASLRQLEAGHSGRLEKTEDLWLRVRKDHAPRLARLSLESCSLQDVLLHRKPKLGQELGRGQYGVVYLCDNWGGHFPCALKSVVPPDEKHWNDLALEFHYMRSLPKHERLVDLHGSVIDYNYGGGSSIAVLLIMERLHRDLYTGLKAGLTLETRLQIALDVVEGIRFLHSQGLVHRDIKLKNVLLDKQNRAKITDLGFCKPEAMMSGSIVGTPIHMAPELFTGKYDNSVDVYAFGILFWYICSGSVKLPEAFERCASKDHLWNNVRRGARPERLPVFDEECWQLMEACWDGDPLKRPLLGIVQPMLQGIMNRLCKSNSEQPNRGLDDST

[2] = molecular target: G protein-coupled receptor kinase 6 (Homo sapiens) (UniProt P43250); assay: Inhibition of human GRK6 assessed as enzyme activity at 1 uM using casein as substrate preincubated for 20 mins followed by [gamma-33P]-ATP addition and measured after 120 mins by radiometric Hot-SpotSM Kinase assay relative to control
[3] = molecular target: Mitogen-activated protein kinase 14 (Homo sapiens) (UniProt Q16539); assay: Inhibition of human P38a assessed as enzyme activity at 1 uM using myelin basic protein as substrate preincubated for 20 mins followed by [gamma-33P]-ATP addition and measured after 120 mins by radiometric Hot-SpotSM Kinase assay relative to control
[4] = molecular target: Calcium/calmodulin-dependent protein kinase type 1D (Homo sapiens) (UniProt Q8IU85); assay: Inhibition of human CAMK1d assessed as enzyme activity at 1 uM using KKALRRQETVDAL as substrate preincubated for 20 mins followed by [gamma-33P]-ATP addition and measured after 120 mins by radiometric Hot-SpotSM Kinase assay relative to control
[5] = molecular target: Serine/threonine-protein kinase 26 (Homo sapiens) (UniProt Q9P289); assay: Inhibition of human MST4 assessed as enzyme activity at 1 uM using myelin basic protein as substrate preincubated for 20 mins followed by [gamma-33P]-ATP addition and measured after 120 mins by radiometric Hot-SpotSM Kinase assay relative to control
[6] = molecular target: RAC-beta serine/threonine-protein kinase (Homo sapiens) (UniProt P31751); assay: Inhibition of human AKT2 assessed as enzyme activity at 1 uM using KGSGSGRPRTSSFAEG as substrate preincubated for 20 mins followed by [gamma-33P]-ATP addition and measured after 120 mins by radiometric Hot-SpotSM Kinase assay relative to control
[7] = molecular target: T2, Casein kinase I isoform alpha-like (Homo sapiens) (UniProt Q8N752); assay: Inhibition of human CK1a1L assessed as enzyme activity at 1 uM using KRRRAL[pS]VASLPGL as substrate preincubated for 20 mins followed by [gamma-33P]-ATP addition and measured after 120 mins by radiometric Hot-SpotSM Kinase assay relative to control
T2 sequence (whole entry): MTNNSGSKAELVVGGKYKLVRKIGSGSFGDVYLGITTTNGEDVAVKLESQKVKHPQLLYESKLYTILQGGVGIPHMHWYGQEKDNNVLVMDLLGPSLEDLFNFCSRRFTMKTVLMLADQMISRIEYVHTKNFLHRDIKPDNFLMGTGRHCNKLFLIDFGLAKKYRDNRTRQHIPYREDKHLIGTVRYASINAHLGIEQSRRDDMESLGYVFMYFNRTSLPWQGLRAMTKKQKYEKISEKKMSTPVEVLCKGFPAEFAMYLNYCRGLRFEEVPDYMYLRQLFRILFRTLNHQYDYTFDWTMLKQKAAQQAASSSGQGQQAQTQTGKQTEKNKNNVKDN

[8] = molecular target: T3, Dual specificity tyrosine-phosphorylation-regulated kinase 4 (Homo sapiens) (UniProt Q9NR20); assay: Inhibition of human DYRK4 assessed as enzyme activity at 1 uM using RRRFRPASPLRGPPK as substrate preincubated for 20 mins followed by [gamma-33P]-ATP addition and measured after 120 mins by radiometric Hot-SpotSM Kinase assay relative to control
T3 sequence (whole entry): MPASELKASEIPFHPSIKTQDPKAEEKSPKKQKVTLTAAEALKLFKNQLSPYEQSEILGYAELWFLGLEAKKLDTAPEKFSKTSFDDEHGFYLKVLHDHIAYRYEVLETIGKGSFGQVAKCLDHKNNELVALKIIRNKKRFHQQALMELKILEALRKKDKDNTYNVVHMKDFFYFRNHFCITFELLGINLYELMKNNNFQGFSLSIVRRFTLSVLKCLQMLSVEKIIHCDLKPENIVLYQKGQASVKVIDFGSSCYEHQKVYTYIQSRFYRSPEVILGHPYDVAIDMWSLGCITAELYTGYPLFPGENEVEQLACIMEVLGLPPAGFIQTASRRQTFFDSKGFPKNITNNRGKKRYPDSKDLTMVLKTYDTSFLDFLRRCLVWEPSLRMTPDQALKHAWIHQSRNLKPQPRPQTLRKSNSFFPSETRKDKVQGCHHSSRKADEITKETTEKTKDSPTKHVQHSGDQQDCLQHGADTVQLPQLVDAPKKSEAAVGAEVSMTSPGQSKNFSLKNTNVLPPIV

[9] = molecular target: Serine/threonine-protein kinase Nek6 (Homo sapiens) (UniProt Q9HC98); assay: Inhibition of human NEK6 assessed as enzyme activity at 1 uM using casein as substrate preincubated for 20 mins followed by [gamma-33P]-ATP addition and measured after 120 mins by radiometric Hot-SpotSM Kinase assay relative to control
Chain of Serine/threonine-protein kinase Nek6 (Homo sapiens) (Q9HC98 whole entry): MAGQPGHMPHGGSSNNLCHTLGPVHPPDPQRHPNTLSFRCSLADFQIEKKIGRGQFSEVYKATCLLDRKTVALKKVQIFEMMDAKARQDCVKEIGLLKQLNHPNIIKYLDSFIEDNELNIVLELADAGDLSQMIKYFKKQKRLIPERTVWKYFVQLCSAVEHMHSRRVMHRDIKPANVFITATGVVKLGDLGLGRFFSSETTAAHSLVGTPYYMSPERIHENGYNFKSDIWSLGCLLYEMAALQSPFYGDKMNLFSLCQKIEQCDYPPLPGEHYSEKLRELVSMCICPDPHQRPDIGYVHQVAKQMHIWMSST

Chain of G protein-coupled receptor kinase 6 (Homo sapiens) (P43250 whole entry, looked up): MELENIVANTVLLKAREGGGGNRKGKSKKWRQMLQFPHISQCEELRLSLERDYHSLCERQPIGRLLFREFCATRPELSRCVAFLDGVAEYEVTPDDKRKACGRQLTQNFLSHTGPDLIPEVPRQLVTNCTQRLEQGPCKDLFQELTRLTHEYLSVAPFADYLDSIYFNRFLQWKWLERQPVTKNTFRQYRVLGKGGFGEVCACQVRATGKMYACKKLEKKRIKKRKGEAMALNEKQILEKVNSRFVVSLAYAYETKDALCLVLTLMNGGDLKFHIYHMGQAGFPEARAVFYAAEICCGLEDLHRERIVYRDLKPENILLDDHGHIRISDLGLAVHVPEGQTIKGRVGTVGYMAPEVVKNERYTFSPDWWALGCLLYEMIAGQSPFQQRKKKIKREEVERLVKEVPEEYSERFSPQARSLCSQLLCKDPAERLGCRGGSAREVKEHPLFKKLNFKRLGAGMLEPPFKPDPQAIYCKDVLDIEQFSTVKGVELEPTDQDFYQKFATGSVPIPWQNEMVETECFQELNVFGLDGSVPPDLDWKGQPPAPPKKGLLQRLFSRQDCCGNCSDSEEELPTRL
Chain of RAC-beta serine/threonine-protein kinase (Homo sapiens) (P31751 whole entry, canonical isoform): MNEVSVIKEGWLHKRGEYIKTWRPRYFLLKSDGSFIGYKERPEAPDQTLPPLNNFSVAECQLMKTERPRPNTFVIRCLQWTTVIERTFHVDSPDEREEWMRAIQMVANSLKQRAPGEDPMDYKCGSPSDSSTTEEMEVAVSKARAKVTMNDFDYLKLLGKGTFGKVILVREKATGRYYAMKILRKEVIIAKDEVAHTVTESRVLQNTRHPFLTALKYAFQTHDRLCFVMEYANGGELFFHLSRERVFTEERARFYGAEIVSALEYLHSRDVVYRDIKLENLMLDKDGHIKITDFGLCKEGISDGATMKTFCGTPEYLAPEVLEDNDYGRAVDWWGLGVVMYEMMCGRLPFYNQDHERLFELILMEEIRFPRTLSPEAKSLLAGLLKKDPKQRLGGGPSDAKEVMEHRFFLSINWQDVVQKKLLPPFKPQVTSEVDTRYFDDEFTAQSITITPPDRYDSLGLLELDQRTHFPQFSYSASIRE
Chain of Calcium/calmodulin-dependent protein kinase type 1D (Homo sapiens) (Q8IU85 whole entry, looked up): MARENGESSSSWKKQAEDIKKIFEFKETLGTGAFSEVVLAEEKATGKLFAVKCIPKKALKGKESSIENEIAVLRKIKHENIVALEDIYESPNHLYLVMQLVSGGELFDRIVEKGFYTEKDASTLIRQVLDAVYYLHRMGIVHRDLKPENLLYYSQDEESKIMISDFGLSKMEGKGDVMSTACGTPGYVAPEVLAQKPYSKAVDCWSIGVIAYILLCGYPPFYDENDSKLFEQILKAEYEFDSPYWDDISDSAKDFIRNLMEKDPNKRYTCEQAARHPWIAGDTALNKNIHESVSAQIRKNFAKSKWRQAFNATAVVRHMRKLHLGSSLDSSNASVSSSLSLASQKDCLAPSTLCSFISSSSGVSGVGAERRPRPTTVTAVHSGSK
Chain of Mitogen-activated protein kinase 14 (Homo sapiens) (Q16539 whole entry): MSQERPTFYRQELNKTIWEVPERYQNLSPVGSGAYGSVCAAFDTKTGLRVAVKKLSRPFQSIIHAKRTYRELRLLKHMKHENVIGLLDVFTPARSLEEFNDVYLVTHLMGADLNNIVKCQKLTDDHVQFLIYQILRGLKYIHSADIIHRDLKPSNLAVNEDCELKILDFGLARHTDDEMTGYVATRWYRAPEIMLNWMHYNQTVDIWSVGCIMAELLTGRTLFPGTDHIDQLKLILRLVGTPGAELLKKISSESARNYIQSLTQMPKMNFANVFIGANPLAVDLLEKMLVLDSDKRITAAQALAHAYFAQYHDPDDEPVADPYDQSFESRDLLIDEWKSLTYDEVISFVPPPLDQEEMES
Chain of Serine/threonine-protein kinase 26 (Homo sapiens) (Q9P289 2-416 limits assumed): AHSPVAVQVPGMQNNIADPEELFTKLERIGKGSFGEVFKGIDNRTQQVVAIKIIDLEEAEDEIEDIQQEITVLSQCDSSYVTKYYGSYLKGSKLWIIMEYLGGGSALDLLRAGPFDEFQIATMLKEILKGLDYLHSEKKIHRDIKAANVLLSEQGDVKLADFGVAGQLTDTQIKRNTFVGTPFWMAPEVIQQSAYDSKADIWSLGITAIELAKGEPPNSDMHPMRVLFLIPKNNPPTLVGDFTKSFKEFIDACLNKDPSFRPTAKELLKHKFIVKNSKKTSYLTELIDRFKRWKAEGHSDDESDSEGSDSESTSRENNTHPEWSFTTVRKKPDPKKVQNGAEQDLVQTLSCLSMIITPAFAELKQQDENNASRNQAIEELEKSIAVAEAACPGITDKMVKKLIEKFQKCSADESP

SMILES: CC[C@H](Nc1ncnc2[nH]cnc12)c1nc2cccc(F)c2c(=O)n1-c1ccccc1
- Activity [1]: 90%
- Activity [2]: 99.5%
- Activity [3]: 98.8%
- Activity [4]: 98.8%
- Activity [5]: 91.5%
- Activity [6]: 91.6%
- Activity [7]: 101%
- Activity [8]: 100%
- Activity [9]: 93.2%

SMILES: CC(C)Oc1ccc(-c2nn([C@@H](C)c3oc4ccc(F)cc4c(=O)c3-c3cccc(F)c3)c3ncnc(N)c23)cc1F [UMBRALISIB]
- Activity [1]: 90.7%
- Activity [2]: 102%
- Activity [3]: 96.9%
- Activity [4]: 99.1%
- Activity [5]: 88.2%
- Activity [6]: 90.8%
- Activity [7]: 103%
- Activity [8]: 98.8%
- Activity [9]: 97.7%

SMILES: C[C@H](Nc1ncnc2nc[nH]c12)c1cc2cccc(Cl)c2c(=O)n1-c1ccccc1
- Activity [1]: 96%
- Activity [2]: 96.9%
- Activity [3]: 94.5%
- Activity [4]: 96%
- Activity [5]: 83.5%
- Activity [6]: 92%
- Activity [7]: 99.5%
- Activity [8]: 97.1%
- Activity [9]: 92.6%

Source: ChEMBL document CHEMBL5715954, “Silencing c-Myc translation as a therapeutic strategy through targeting PI3Kδ and CK1ε in hematological malignancies” (Blood, 2017)
